Source: US20050163711A1, “Intra-dermal delivery of biologically active agents” (Becton, Dickinson and Company, Inc., priority 2003, published 2005)

How the values were obtained:
[1] = Dye staining and tracing in vivo after intradermal injection; parameters: species or system Balb/c mice; conditions: mouse, ID, 34 gauge needle, 1% solution, one hour post injection
Protocol: MATERIALS AND METHODS. In Vivo cell staining and all the following experiments were conducted under an approved IACUC protocol. Balb/c mice (Charles River Laboratories, Raleigh, N.C.), 6-8 weeks old, were anesthetized (IsoFlurane, Abbott Laboratories, Chicago, Ill.) and injected intradermally with 1% Evans Blue dye solution using a standard syringe with 34 gauge needle. The mice were dissected one hour post injection and the location of the dye observed. The mouse, as the human, has several main groups of easily identified draining lymph nodes.

[2] = Dye staining and tracing in vivo: comparison of SC and ID delivery; parameters: species or system Yorkshire swine; conditions: swine; for location of dye on dissection: 10 minutes post injection
Protocol: MATERIALS AND METHODS. In vivo cell staining and all the following experiments were conducted under an approved IACUC protocol. […] Visual observation made during ID injection noted immediate transport of the dye from the site of injection moving toward the regional draining lymph node, the inguinal node. This transport was visible through the skin and was extremely rapid, traversing tissues at velocities of up to 10 cm per second. […] The swine was euthanized and dissected 10 minutes post injection and the location of the dye observed.

[3] = ID administration of 200 uL dye with 34G, 1 mm needle/catheter, transport to inguinal lymph node; format: in vivo, Yorkshire swine; conditions: swine, manual ID above the right hoof, 200 uls
Protocol: MATERIALS AND METHODS. The following experiments were conducted under an approved IACUC protocol. Yorkshire Swine (Charles River Laboratories, Raleigh, N.C.), approximately 20-25 kg, were anesthetized (Rompun 4 mg/kg, Xylazine 2 mg/kg, and Ketamine 2 mg/kg and maintained on 2% isoflurane) and injected intradermally with 1% Evans Blue (EB) dye solution at various volumes and needle penetration depths using a standard syringe and a 34 gauge needle. Injection volume and rate was controlled manually or with a Harvard Apparatus PhD 2000 programmable pump.
The skin at the injection site, including the injected material and surrounding tissue, was immediately excised after the injection. The tissue was flash frozen on dry ice/2-methylbutane and then stored at −80° C. until sectioning. The frozen tissue was cut longitudinally through the needle insertion point and immediately examined microscopically and photographed. Microscopic examinations were conducted using a Nikon SMZ-U dissecting scope with a Nikon FX-35PX 35 mm camera mount. Alternatively, after injection, the swine was euthanized and the tissue resected and photographed.
One anesthetized Yorkshire swine was manually injected intradermally above the right hoof with 200 uls of EB through a 34G, 1 mm needle/catheter.

[4] = Yorkshire, swine, in vivo
Protocol: Yorkshire swine (Charles River Laboratories, Raleigh, N.C.), 20-25 kg, were anesthetized (telazol/xylazine/ketamine mix (35, 17.5, 17.5 mg/kg respectively, followed by continued isoflurane inhalation) and injected intradermally (90° angle) using a 34G, 1 mm needle/catheter and a standard syringe. IV injections were performed using a 27G, half-inch needle and delivered through a venous catheter. All recovered swine were intubated and hydrated throughout the procedure.
Dye Injections: Yorkshire swine were injected ID as described above, with 200 uls of 250 ug/ml indocyanine green (ICG) in sterile water (Fluka Chemical Corp., Milwaukee, Wis.). Injections sites included the right hind leg, and at the first and second teat of the left mammary chain. Additional injections of 200 μls and 75 μls were performed at 80 ug/ml indocyanine green in order to determine lymphatic flow rates. […]
Image Acquisition: Near infrared images were obtained using a tungsten lamp (Dolan-Jenner, Lawrence, Mass.) fitted with a 750 nm excitation filter (Omega Optical, Brattleboro, Vt.), a CCD camera (Kowa Co., Supercircuits CCTV camera model b/w Hi-Res ExVision) fitted with a 790 nm long pass emission filter (Omega Optical) and a Canon ZR-20 mini-DV camcorder. […] Speed of infusion through the lymphatic vessels determined from film footage.

staining of superficial inguinal lymph nodes with the dye [1] | velocity of dye transport from injection site toward inguinal node ([2]; ID, 34-gauge needle 1 mm, 1% solution, visual observation through skin) | transport of dye, visual observation ([2]; subcutaneous, 25 gauge needle, approximate depth 7 mm) | time for dye to travel from site of injection to draining inguinal lymph node [3] | rate of travel of dye to draining inguinal lymph node ([3]; 34G 1 mm needle/catheter) [cm/s] | dye travel speed calculated for one injection [4] [cm/s] | SMILES | location of dye on dissection ([2]; ID injected) | location of dye on dissection ([2]; subcutaneous injected)
highly stained | up to 10 cm per second | no apparent transport of the dye | Within seconds | ~20 |  | Cc1cc(-c2ccc(/N=N/c3ccc4c(S(=O)(=O)O)cc(S(=O)(=O)O)c(N)c4c3O)c(C)c2)ccc1/N=N/c1ccc2c(S(=O)(=O)O)cc(S(=O)(=O)O)c(N)c2c1O [Evans Blue] | moved rapidly through the lymphatic vasculature to the inguinal node | remained at the site of injection and was not transported to the inguinal node
 |  |  |  |  | 7 | CC1(C)C(/C=C/C=C/C=C/C=C2\N(CCCCS(=O)(=O)O)c3ccc4ccccc4c3C2(C)C)=[N+](CCCCS(=O)(=O)[O-])c2ccc3ccccc3c21 [ICG, indocyanine green] |  | 
